One assay addresses T1, hNMNAT-1 (Homo sapiens, UniProt Q9HAN9).
T1 construct: made in house
The assay is described as follows: NMN adenylyltransferase activity assay (pyrophosphatase-coupled, malachite green), hNMNAT-1. In kind it is biochemical. Set-up: key to mode of inhibition (in brackets) towards NMN, hNMNAT-1 / mode of inhibition (in brackets) towards ATP, hNMNAT-1: M, mixed inhibition; C, competitive; U, uncompetitive. To be noted: for Ki: inhibitor 30 and 90 µM, ± std. error, αKi in the case of uncompetitive inhibition. An excerpt: (§1) The reaction catalyzed by NMN adenylyltransferase can be represented as NMN + ATP (NAD + PPi). To avoid interference of methyl NAD analogues with NAD-based detection assays, we used a “pyrophosphate-dependent” coupled assay that couples NMNAT activity with inorganic pyrophosphatase (PPase) that hydrolyzes PPi into two molecules of inorganic phosphate (Pi). Phosphate was quantified using a malachite green dye as described. Enzyme purification procedures followed previous reports. The reactions were carried out using a 96-well microplate assay format at room temperature in a total volume of 50 µL per well. The reaction mixtures contained 100 mM Hepes, pH 7.5, 10 mM MgCl2, 0.1 mg/mL bovine serum albumin, and an excess of 4 U/mL of inorganic pyrophosphatase. The hNMNAT concentration, ranging from 3 to 15 nM, was adjusted in different tests to ensure initial velocity conditions (5–10% substrate depletion) while retaining a linear response. An amount of 100 µL of the malachite green reagent was added to each well to stop the reactions. Following a 20–30 min incubation period, the molybdate in the reagent formed a complex with the free phosphate, resulting in full-color development. The phosphate concentration was then quantified by measuring the absorbance at 620 nm using a microplate reader (Biotek Synergy HT) and interpolating these values against a pre-established standard curve. Absorbance from control reactions performed in the absence of hNMNAT were subtracted from absorbances of the respective reactions with the enzyme to account for background hydrolysis. Details for substrate and inhibitor concentration range are given below and in the legend of Figure 2. Assays with the inhibitors were carried out in triplicate, and the percentage of inhibition at each concentration was calculated for the initial screening at 0.5 mM.
(§2) Values for inhibition constant Ki and α were determined by fitting the data to the rate equation for general mixed model inhibition: V = VmaxS/[Km(1 + I/Ki) + S(1 + I/[…])] using GraphPad Prism software version 7.05, where Vmax and Km are the classic Michaelis–Menten parameters, Ki is the equilibrium dissociation constant for the enzyme-inhibitor complex, S and I are the substrate and the inhibitor concentration, respectively. This model includes competitive, uncompetitive, and noncompetitive inhibition as special cases that the α values can diagnose. Further mechanistic insights into the mode of inhibition were drawn by graphical inspection of the Lineaweaver–Burk plots.

The target of assay [1] is T2, hNMNAT-3 (Homo sapiens, UniProt Q96T66).
T2 construct: made in house
T2 sequence (Q96T66 whole entry): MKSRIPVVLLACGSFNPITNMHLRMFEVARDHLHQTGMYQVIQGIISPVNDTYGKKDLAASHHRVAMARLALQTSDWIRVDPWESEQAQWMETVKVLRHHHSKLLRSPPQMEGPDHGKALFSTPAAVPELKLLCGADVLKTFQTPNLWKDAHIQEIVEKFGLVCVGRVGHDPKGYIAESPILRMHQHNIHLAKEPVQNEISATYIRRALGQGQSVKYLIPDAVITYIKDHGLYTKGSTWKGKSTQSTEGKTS
The assay is described as follows: NMN adenylyltransferase activity assay (pyrophosphatase-coupled, malachite green), hNMNAT-3. In kind it is biochemical. Set-up: key to mode of inhibition (in brackets) towards NMN, hNMNAT-3 / mode of inhibition (in brackets) towards ATP, hNMNAT-3: M, mixed inhibition; C, competitive; U, uncompetitive. The conditions noted are these: for enzyme inhibition in the initial screening, hNMNAT-3: fixed concentration of 0.5 mM inhibitor; for Ki: inhibitor 30 and 90 µM, ± std. error, αKi in the case of uncompetitive inhibition.
Text: as §1, §2

For another assay, the target named is T3, hNMNAT-2 (Homo sapiens, UniProt Q9BZQ4).
T3 construct: made in house
T3 sequence (Q9BZQ4 whole entry): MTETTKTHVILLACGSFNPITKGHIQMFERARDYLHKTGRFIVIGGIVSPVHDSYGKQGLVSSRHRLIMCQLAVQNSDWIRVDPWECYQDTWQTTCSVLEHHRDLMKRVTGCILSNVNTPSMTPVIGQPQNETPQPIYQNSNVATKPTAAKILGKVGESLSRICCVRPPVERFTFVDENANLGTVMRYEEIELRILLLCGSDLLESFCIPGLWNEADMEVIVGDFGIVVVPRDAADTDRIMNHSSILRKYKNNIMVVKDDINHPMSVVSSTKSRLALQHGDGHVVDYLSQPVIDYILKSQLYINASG
The assay is described as follows: NMN adenylyltransferase activity assay (pyrophosphatase-coupled, malachite green), hNMNAT-2. In kind it is biochemical. Set-up: key to mode of inhibition (in brackets) towards NMN, hNMNAT-2 / mode of inhibition (in brackets) towards ATP, hNMNAT-2: M, mixed inhibition; C, competitive; U, uncompetitive. The conditions noted are these: for enzyme inhibition in the initial screening, hNMNAT-2: fixed concentration of 0.5 mM inhibitor; for Ki: inhibitor 30 and 90 µM, ± std. error, αKi in the case of uncompetitive inhibition.
Text: as §1, §2

Assay [2] has as its target T2, hNMNAT-3. On the set-up: method as in PMID 16118205, PMID 18336280. The conditions noted are these: most sensitive isoform; cited from earlier work.
[3] abbreviates: fixed concentration of 0.5 mM inhibitor.
Setting [4] is: ATP varied, NMN fixed (0.5 mM), read-out: Ki towards ATP, hNMNAT-2.
Setting [5] is: NMN varied, ATP fixed (0.5 mM), read-out: Ki towards NMN, hNMNAT-2.
Where [6] appears, read: steady-state kinetic analysis, versus ATP.

Data on seven compounds can be found in article PMC11207052, “Synthesis, Biological, and Computational Evaluations of Conformationally Restricted NAD-Mimics as Discriminant Inhibitors of Human NMN-Adenylyltransferase Isozymes” (Pharmaceuticals, 2024).

Structures can show the parent of a compound that is named as a salt. Where two headings read alike, the source gives them in different places.

T1 sequence (Q9HAN9 whole entry): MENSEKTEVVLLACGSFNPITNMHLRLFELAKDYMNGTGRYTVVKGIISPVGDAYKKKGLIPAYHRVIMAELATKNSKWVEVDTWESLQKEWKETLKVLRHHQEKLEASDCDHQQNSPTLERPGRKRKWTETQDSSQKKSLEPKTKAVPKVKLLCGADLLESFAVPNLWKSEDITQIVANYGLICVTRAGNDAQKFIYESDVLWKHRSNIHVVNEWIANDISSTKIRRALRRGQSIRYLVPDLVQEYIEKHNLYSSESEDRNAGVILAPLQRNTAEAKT

In the case of `C[C@@]1(O)[C@H](O)[C@@H](COP(=O)(O)O)O[C@H]1n1cnc2c(N)ncnc21` [2′-MeAMP (5), 9H-(2′-C-Methyl-β-D-ribofuranosyl)adenine-5′-monophosphate Tributyl Ammonium Salt], at hNMNAT-1 (setting [3]), the “enzyme inhibition in the initial screening, hNMNAT-1” value (from here on “enzyme inhibition … hNMNAT-1”) is reported as “absence of inhibition”. Besides, at hNMNAT-3 [1], the “enzyme inhibition in the initial screening, hNMNAT-3” value (“enzyme inhibition … hNMNAT-3” below) was “absence of inhibition”. Besides, the “enzyme inhibition in the initial screening, hNMNAT-2” value (shortened to “enzyme inhibition … hNMNAT-2”) at hNMNAT-2 is listed as “absence of inhibition”.
Turning to `C[C@@]1(O)[C@H](O)[C@@H](COP(=O)([O-])OP(=O)(O)OC[C@H]2O[C@@H]([n+]3cccc(C(N)=O)c3)[C@H](O)[C@@H]2O)O[C@H]1n1cnc2c(N)ncnc21` [2′-MeNAD (1), P^1-[5′-(2′-C-Methyl-β-D-ribofuranosyl)adenine]-P^2-[5′-(β-D-ribofuranosyl)nicotinamide] Pyrophosphate], the inhibition at 500 µM on hNMNAT-1 (fixed concentration of 0.5 mM inhibitor, read-out: enzyme inhibition in the initial screening, hNMNAT-1) is below 50%. Also, on hNMNAT-2 (ATP varied), the “mode of inhibition (in brackets) towards ATP, hNMNAT-2” value is listed as “M”. Also, the Ki at hNMNAT-2 (setting [4]) came to 21 ± 3 µM; on hNMNAT-2 (setting [5]) it was 15 ± 3 µM. On hNMNAT-2 (NMN varied), the “mode of inhibition (in brackets) towards NMN, hNMNAT-2” value was “M”. Besides, the “mode of inhibition (in words), hNMNAT-2” value at hNMNAT-2 (steady-state kinetic analysis) is listed as “mixed-type inhibition with a strong non-competitive character”.
For the compound `C[C@@]1(O)[C@H](O)[C@@H](COP(=O)([O-])OP(=O)(O)OC[C@H]2O[C@@H]([n+]3cccc(C(=O)O)c3)[C@H](O)[C@@H]2O)O[C@H]1n1cnc2c(N)ncnc21` [2′-MeNaAD (3), P^1-[5′-(2′-C-Methyl-β-D-ribofuranosyl)adenine]-P^2-[5′-(β-D-ribofuranosyl)nicotinic acid] Pyrophospshate], the “mode of inhibition (in brackets) towards ATP, hNMNAT-1” value at hNMNAT-1 (ATP varied) is listed as “U”. In addition, the Ki was found to be 82 ± 14 µM on hNMNAT-1 (ATP varied, NMN fixed (0.5 mM), read-out: Ki towards ATP, hNMNAT-1); 168 ± 19 µM on hNMNAT-1 (NMN varied, ATP fixed (0.5 mM), read-out: Ki towards NMN, hNMNAT-1); 223 ± 22 µM on hNMNAT-3 [1] (ATP varied, NMN fixed (0.5 mM), read-out: Ki towards ATP, hNMNAT-3); 224 ± 17 µM at hNMNAT-3 [1] (NMN varied, ATP fixed (0.5 mM), read-out: Ki towards NMN, hNMNAT-3); 41 ± 14 µM at hNMNAT-2 (setting [4]); 60 ± 18 µM at hNMNAT-2 (setting [5]). In addition, the “mode of inhibition (in brackets) towards NMN, hNMNAT-1” value at hNMNAT-1 (NMN varied) is reported as “C”. In addition, the “mode of inhibition versus ATP (in words), hNMNAT-1” value on hNMNAT-1 (setting [6]) is “uncompetitive character”. Further, the “mode of inhibition (in brackets) towards ATP, hNMNAT-3” value on hNMNAT-3 [1] (ATP varied) is listed as “C”. Besides, on hNMNAT-3 [1] (NMN varied), the “mode of inhibition (in brackets) towards NMN, hNMNAT-3” value is recorded as “C”. Besides, on hNMNAT-2 (ATP varied), the “mode of inhibition (in brackets) towards ATP, hNMNAT-2” value was “U”. The “mode of inhibition (in brackets) towards NMN, hNMNAT-2” value at hNMNAT-2 (NMN varied) was “M”. Moreover, the “mode of inhibition versus ATP (in words), hNMNAT-2” value on hNMNAT-2 (setting [6]) was “uncompetitive character”.
Regarding `C[C@@]1(O)[C@@H](COP(=O)(O)O)O[C@@H](n2cnc3c(N)ncnc32)[C@@H]1O` [3′-MeAMP (6), 9H-(3′-C-Methyl-β-D-ribofuranosyl)adenine-5′-monophosphate Tributyl Ammonium Salt], the “enzyme inhibition … hNMNAT-1” value on hNMNAT-1 (setting [3]) was “absence of inhibition”. Moreover, at hNMNAT-3 [1], the “enzyme inhibition … hNMNAT-3” value is reported as “absence of inhibition”. Also, the “enzyme inhibition … hNMNAT-2” value on hNMNAT-2 is reported as “absence of inhibition”.
As to `C[C@@]1(O)[C@H](O)[C@@H](CO)O[C@H]1n1cnc2c(N)ncnc21` [Compound 11, 2′-MeAdo], at hNMNAT-1 (setting [3]), the “enzyme inhibition … hNMNAT-1” value is “absence of inhibition”. In addition, the “enzyme inhibition … hNMNAT-3” value at hNMNAT-3 [1] was “absence of inhibition”. Moreover, the “enzyme inhibition … hNMNAT-2” value on hNMNAT-2 is “absence of inhibition”.
In the case of `C[C@@]1(O)[C@@H](CO)O[C@@H](n2cnc3c(N)ncnc32)[C@@H]1O` [Compound 12, 3′-MeAdo], the “enzyme inhibition … hNMNAT-1” value at hNMNAT-1 (setting [3]) is reported as “absence of inhibition”. For the same compound, at hNMNAT-3 [1], the “enzyme inhibition … hNMNAT-3” value is reported as “absence of inhibition”. Further, the “enzyme inhibition … hNMNAT-2” value at hNMNAT-2 is “absence of inhibition”.
For `O=C(OC[C@H]1O[C@@H](OC(=O)c2cc(O)c(O)c(OC(=O)c3cc(O)c(O)c(O)c3)c2)[C@H](OC(=O)c2cc(O)c(O)c(OC(=O)c3cc(O)c(O)c(O)c3)c2)[C@@H](OC(=O)c2cc(O)c(O)c(OC(=O)c3cc(O)c(O)c(O)c3)c2)[C@@H]1OC(=O)c1cc(O)c(O)c(OC(=O)c2cc(O)c(O)c(O)c2)c1)c1cc(O)c(O)c(OC(=O)c2cc(O)c(O)c(O)c2)c1` [Gallotannin], the IC50 at hNMNAT-3 [2] was 2 µM.

One may read the inhibition as the share of the control response that was lost under treatment. In general, Ki refers to the equilibrium dissociation constant of an inhibitor or competing ligand from its target. One may read the IC50 as the point on the concentration scale where inhibition reaches its midpoint.
